The values that follow come from ChEMBL document CHEMBL4014283, “Structural insights of SmKDAC8 inhibitors: Targeting Schistosoma epigenetics through a combined structure-based 3D QSAR, in vitro and synthesis strategy” (Bioorg Med Chem, 2017).

The term inhibition denotes the percentage by which the read-out fell short of the control.

Calls of active or inactive are those of the source. The calls are words filed in the database; no cut-off is given here.

One data set deals with Histone deacetylase 1 (Homo sapiens, UniProt Q13547). Kind of data set: (§1) Inhibition of full length human C-terminal FLAG/His-tagged KDAC1 expressed in baculovirus expression system at 30 uM using substrate A after 60 mins by microfluidic assay relative to control. To be noted: 1 h, 30 µM.
Data set [1] has as its target KDAC3/NCOR2 (histone deacetylase 3/nuclear receptor corepressor 2 complex) (Homo sapiens, UniProt O15379). Kind of data set: (§2) Inhibition of full length human C-terminal His-tagged KDAC3/N-terminal GST-tagged human NCOR2 (395 to 489 residues) expressed in baculovirus expression system at 30 uM using FITC-p53 acetylated peptide as substrate after 60 mins by microfluidic assay. As to conditions: probe FITC-p53 acetylated peptide.

The target of data set [2] is T1, KDAC6 (protein deacetylase HDAC6) (Homo sapiens, UniProt Q9UBN7).
T1 sequence (Q9UBN7 whole entry): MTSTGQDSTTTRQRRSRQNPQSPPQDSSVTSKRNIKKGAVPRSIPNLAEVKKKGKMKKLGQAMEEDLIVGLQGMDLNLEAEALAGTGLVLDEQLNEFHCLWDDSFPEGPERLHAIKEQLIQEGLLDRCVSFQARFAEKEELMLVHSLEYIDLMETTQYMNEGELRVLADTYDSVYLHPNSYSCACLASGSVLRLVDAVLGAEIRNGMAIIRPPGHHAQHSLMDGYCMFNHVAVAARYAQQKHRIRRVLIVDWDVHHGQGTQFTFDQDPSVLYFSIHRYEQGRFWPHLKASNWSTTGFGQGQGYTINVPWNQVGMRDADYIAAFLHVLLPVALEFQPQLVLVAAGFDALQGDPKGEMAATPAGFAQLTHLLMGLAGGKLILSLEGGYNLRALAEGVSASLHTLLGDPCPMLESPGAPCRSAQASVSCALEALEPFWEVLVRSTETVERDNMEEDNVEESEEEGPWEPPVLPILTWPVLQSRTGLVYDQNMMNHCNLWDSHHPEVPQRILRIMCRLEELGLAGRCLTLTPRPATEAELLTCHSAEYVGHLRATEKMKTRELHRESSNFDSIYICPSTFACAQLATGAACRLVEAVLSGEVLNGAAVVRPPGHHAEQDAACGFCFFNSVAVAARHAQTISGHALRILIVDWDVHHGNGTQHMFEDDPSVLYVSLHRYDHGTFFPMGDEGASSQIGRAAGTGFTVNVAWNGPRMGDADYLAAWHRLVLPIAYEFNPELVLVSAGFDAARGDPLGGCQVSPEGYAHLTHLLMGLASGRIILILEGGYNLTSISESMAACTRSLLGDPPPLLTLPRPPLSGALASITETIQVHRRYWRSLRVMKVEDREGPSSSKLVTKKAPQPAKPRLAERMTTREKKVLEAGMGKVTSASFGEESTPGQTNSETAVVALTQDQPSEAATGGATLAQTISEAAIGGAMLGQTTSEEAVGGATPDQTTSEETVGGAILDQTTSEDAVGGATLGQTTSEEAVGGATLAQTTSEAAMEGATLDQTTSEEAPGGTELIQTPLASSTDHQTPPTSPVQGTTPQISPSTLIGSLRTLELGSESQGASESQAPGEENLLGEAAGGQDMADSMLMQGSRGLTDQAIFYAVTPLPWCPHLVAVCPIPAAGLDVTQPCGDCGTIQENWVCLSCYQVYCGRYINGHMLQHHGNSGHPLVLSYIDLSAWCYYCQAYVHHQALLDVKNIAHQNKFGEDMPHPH
The experiment in a line: (§3) Inhibition of human KDAC6 expressed in baculovirus expression system at 30 uM using FITC-Histone 4 acetylated peptide as substrate after 60 mins by microfluidic assay. As to conditions: probe FITC-Histone 4 acetylated peptide.

A further data set has as its target T2, Histone deacetylase 8 (Homo sapiens, UniProt Q9BY41).
T2 sequence (Q9BY41 whole entry): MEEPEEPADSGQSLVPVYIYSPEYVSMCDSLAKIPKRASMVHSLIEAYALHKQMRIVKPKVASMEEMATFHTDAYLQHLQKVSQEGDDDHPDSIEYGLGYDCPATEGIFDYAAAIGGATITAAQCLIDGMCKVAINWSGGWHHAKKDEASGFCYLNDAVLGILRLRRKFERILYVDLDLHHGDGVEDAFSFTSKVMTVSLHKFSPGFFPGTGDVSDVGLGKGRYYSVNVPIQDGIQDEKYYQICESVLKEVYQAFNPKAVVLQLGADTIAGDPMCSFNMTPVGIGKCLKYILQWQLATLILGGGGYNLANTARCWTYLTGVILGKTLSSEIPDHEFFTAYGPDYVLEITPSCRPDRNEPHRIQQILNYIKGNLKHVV
Kind of data set: (§4) Inhibition of full length human C-terminal His-tagged KDAC8 expressed in baculovirus expression system at 30 uM using (FAM)-labeled peptide as substrate after 60 mins by microfluidic assay relative to control. As to conditions: 1 h, 30 µM.

The target in data set [3] is T3, Histone deacetylase 8 (Schistosoma mansoni) (UniProt A5H660).
T3 sequence (whole entry): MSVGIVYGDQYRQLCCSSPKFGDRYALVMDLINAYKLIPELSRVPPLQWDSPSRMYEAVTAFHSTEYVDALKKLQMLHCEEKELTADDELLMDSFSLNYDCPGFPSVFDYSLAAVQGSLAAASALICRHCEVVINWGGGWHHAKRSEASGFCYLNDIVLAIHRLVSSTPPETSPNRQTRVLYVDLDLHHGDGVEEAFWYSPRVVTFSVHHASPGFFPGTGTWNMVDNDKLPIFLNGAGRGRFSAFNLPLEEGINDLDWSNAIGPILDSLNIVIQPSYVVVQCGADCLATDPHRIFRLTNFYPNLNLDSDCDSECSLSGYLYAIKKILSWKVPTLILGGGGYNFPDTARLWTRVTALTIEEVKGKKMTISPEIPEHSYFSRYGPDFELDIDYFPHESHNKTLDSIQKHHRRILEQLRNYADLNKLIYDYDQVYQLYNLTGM
Kind of data set: Inhibition of Schistosoma mansoni KDAC8 at 30 uM using (FAM)-labeled peptide as substrate after 60 mins by microfluidic assay.

In data set [4] the target is KDAC1 (histone deacetylase 1) (Homo sapiens, UniProt Q13547). The description is as §1. As to conditions: probe substrate A.
For data set [5], the target named is T4, Protein deacetylase HDAC6 (Homo sapiens, UniProt Q9UBN7).
T4 sequence (Q9UBN7 whole entry): T1 sequence (Q9UBN7 whole entry)
The data set is described as §3. To be noted: 1 h, 30 µM.

Data set [6] concerns the target Histone deacetylase 3/Nuclear receptor corepressor 2 (HDAC3/NCoR2) (Homo sapiens, UniProt O15379+Q9Y618). The data set is described as §2. As to conditions: 1 h, 30 µM.
In data set [7] the target is T5, KDAC8 (histone deacetylase 8) (Homo sapiens, UniProt Q9BY41).
T5 sequence (Q9BY41 whole entry): T2 sequence (Q9BY41 whole entry)
The data set is described as §4. As to conditions: probe (FAM)-labeled peptide.

Sequence of KDAC1 (histone deacetylase 1) (Q13547 whole entry): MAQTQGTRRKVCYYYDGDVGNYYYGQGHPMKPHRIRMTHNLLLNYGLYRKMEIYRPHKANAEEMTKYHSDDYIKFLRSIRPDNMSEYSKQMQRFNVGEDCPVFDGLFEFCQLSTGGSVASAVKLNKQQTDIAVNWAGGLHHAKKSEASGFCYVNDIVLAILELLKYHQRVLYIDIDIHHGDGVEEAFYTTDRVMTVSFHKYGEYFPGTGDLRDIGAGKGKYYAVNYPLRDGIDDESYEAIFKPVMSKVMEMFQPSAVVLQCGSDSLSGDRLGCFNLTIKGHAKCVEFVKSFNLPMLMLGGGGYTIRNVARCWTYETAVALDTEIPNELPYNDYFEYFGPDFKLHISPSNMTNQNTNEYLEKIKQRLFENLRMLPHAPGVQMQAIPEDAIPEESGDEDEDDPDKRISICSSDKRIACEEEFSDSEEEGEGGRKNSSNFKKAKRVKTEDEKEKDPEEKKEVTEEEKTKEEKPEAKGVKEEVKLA
Sequence of Histone deacetylase 1 (Q13547 whole entry, the tested form may be a part): as the sequence (Q13547 whole entry) above
Sequence of Histone deacetylase 3/Nuclear receptor corepressor 2 (HDAC3/NCoR2) (O15379 whole entry): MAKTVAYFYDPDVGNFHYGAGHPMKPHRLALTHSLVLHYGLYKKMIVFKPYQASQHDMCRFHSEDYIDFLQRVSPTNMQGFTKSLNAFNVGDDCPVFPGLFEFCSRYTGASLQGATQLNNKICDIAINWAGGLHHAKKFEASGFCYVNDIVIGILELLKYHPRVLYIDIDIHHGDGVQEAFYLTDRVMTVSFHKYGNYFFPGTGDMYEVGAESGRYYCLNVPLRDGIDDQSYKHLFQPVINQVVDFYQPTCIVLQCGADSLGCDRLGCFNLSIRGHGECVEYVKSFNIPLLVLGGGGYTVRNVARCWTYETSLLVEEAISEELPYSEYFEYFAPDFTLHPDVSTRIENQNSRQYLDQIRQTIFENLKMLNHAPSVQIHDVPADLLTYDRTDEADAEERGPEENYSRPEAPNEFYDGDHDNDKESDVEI
Sequence of Histone deacetylase 3/Nuclear receptor corepressor 2 (HDAC3/NCoR2) (Q9Y618 whole entry): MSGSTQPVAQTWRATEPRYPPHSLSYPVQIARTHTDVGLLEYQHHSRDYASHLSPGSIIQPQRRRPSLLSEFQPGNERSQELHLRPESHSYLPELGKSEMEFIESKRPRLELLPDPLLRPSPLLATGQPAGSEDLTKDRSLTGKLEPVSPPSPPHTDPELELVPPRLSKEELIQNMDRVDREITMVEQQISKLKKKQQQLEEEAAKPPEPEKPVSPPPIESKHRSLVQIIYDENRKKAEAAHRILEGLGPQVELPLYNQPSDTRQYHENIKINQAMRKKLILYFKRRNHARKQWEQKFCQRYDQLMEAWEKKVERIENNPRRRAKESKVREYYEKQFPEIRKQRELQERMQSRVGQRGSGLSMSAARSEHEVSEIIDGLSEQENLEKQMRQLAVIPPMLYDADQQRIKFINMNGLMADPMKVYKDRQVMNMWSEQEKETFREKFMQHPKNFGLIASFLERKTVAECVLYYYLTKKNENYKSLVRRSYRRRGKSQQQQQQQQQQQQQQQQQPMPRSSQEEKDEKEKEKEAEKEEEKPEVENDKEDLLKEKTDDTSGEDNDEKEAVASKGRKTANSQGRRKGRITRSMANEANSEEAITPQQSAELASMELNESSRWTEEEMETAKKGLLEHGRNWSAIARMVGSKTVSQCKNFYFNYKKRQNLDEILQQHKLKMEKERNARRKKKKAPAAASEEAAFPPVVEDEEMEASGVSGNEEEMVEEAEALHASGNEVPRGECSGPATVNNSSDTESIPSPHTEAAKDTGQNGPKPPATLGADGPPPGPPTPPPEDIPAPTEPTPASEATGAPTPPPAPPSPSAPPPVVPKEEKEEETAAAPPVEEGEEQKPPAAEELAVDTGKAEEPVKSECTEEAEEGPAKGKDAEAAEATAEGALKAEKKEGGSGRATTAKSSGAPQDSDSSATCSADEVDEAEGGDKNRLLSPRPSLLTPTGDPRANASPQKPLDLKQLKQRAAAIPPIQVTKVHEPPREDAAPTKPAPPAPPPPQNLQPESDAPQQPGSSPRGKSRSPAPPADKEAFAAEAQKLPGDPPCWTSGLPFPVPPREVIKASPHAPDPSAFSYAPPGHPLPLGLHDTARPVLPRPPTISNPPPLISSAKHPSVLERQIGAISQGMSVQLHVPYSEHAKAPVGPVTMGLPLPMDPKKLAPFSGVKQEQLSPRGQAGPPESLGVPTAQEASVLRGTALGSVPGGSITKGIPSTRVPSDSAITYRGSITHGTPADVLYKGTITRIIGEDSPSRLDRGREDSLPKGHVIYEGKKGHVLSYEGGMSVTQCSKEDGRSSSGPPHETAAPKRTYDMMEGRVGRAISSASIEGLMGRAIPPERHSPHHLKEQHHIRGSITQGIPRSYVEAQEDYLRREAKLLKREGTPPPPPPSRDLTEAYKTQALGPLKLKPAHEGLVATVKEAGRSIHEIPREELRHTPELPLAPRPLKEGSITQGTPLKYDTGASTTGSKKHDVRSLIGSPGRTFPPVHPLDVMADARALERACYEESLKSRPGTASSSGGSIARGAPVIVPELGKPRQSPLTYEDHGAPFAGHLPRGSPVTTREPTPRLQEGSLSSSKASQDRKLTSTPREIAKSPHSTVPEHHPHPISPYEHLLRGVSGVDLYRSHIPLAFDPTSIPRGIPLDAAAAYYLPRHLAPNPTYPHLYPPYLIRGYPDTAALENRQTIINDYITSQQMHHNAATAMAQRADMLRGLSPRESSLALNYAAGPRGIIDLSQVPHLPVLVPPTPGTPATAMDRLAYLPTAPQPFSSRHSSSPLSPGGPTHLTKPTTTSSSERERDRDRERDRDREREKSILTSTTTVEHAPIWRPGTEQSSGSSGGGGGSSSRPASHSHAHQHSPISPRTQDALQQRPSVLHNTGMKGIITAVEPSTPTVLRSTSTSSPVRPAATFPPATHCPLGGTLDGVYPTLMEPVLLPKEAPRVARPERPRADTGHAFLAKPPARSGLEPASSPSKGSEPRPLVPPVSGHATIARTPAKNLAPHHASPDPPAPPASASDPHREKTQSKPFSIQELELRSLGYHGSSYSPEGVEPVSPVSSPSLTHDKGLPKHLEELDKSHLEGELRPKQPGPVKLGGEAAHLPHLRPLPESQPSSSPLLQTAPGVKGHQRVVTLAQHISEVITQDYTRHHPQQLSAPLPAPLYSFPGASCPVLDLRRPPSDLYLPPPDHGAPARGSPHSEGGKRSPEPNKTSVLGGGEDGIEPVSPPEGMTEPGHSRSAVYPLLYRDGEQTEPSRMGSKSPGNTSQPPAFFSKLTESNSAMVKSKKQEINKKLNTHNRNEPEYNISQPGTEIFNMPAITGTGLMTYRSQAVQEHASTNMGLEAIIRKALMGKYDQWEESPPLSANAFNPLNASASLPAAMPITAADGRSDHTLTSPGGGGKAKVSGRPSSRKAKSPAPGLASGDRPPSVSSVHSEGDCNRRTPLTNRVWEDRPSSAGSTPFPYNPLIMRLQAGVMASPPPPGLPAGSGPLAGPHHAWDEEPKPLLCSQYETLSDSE
Sequence of KDAC3/NCOR2 (histone deacetylase 3/nuclear receptor corepressor 2 complex) (O15379 whole entry, the tested form may be a part): as the sequence (O15379 whole entry) above
Sequence of KDAC3/NCOR2 (histone deacetylase 3/nuclear receptor corepressor 2 complex) (Q9Y618 whole entry, further chain, the tested form may be a part): as the sequence (Q9Y618 whole entry) above

`CSC1=NC=C(C#N)C2=NC(c3ccc(Cl)cc3)NN12` (stereo not given): the “inhibition (INH)” value against Histone deacetylase 1 and at Histone deacetylase 8 was “Not Active” in each case. The inhibition at 1 h, 30 µM came to 8% in data set [1] and 3% in [2]. For the same compound, the inhibition result in data set [3] was “inactive”.
Turning to `CC1=NN(c2ccccc2)C(=O)C1/N=N/c1ccc(S(N)(=O)=O)cc1` (stereo not given), the results for the inhibition at 1 h, 30 µM in data set [4] and in data set [1] were 1% and 6%, respectively. Also, the “inhibition (INH)” value (in [5]; on Histone deacetylase 8) was “Not Active” each time. In addition, the inhibition entry in [3] was “inactive”.
Consider `S=C(SCc1cc(Cl)cc2c1OCOC2)N1CCSCC1`, for which the “inhibition (INH)” value (on Histone deacetylase 1; in [6]; in data set [5]) was “Not Active” in each case. The compound further yielded an inhibition at 1 h, 30 µM in data set [7] of 4%. Also, the inhibition entry in data set [3] is “inactive”.
For the compound `Cc1cc(C)n(C(=N)NC(=O)c2ccc([N+](=O)[O-])cc2)n1`, the “inhibition (INH)” value (against Histone deacetylase 1; in data set [6]; in data set [5]) was “Not Active” each time. In data set [7], the inhibition at 1 h, 30 µM came out at 4%. The inhibition in data set [3] was determined as 2%.
As to `Nc1cc(Cl)c(Cl)cc1S(=O)(=O)NO`, the “inhibition (INH)” value on Histone deacetylase 1 was “Not Active”. Further, the inhibition at 1 h, 30 µM in data set [1] worked out at 6.7%; in data set [2] it was 3.7%; in [7], 10.4%. Also, the inhibition in data set [3] came out at 8.43%.
Turning to `CC1=CC(C)(C)N=C(S)N1c1cccc2cc(S(=O)(=O)O)ccc12`, the inhibition at 1 h, 30 µM in [4] came out at 3%; in [1], 1%. For the same compound, the “inhibition (INH)” value (in data set [5]; on Histone deacetylase 8) was “Not Active” each time. In data set [3], the inhibition was 9%.
As for `O=C1Nc2cc(Cl)c(Cl)cc2S(=O)(=O)N1O`, the “inhibition (INH)” value on Histone deacetylase 1 was “Not Active”. Also, the inhibition at 1 h, 30 µM amounted to 0.8% in data set [1], 12.3% in data set [2] and 23.5% in [7]. In addition, in [3], the inhibition entry was “inactive”.
Take `Cc1cc(OCCCCOc2ccc(C#N)cc2)ccc1[N+](=O)[O-]`: the “inhibition (INH)” value (against Histone deacetylase 1; in [6]) was “Not Active” each time. Moreover, the inhibition at 1 h, 30 µM in [2] turned out to be 3%; in [7], 19%. In addition, in [3], the inhibition entry was “inactive”.
Take `CCOC(=O)Nc1ccc2nc(N3CCCCCC3)sc2c1`: the “inhibition (INH)” value (on Histone deacetylase 1; in data set [6]; in data set [5]) was “Not Active” throughout. In addition, the inhibition at 1 h, 30 µM in [7] was found to be 6%. This compound gave an inhibition in data set [3] of 5%.
Regarding `CCOC(=O)CSc1nc2nc(Cl)c(Cl)[nH]c-2n1`, the “inhibition (INH)” value against Histone deacetylase 1 and against Histone deacetylase 8 was “Not Active” in each case. For the same compound, the inhibition at 1 h, 30 µM in data set [1] was determined as 9%; in data set [2] it was 21%. Besides, in [3], the inhibition entry is “inactive”.
`COc1ccc([N+](=O)[O-])cc1NS(=O)(=O)c1ccc(C)cc1`: at Histone deacetylase 1, the “inhibition (INH)” value is given as “Not Active”. The inhibition at 1 h, 30 µM was determined as 9% in data set [1], 7% in [2] and 24% in [7]. The inhibition in data set [3] is 13%.
Consider `Nc1ccccc1SC1CC(=O)N(c2ccccc2Cl)C1=O` (stereo not given), for which the “inhibition (INH)” value (on Histone deacetylase 1; in data set [6]; against Histone deacetylase 8) was “Not Active” throughout. The compound further came in with an inhibition at 1 h, 30 µM in [2] of 1%. The same compound showed an inhibition in [3] of 1%.
As to `CC1(C)[C@H]2CC[C@H](CNC(=N)CSS(=O)(=O)O)[C@@H]1C2`, the “inhibition (INH)” value (at Histone deacetylase 1; in data set [6]; at Histone deacetylase 8) was “Not Active” in each case. In addition, the inhibition at 1 h, 30 µM in data set [2] was determined as 9%. Moreover, the inhibition entry in data set [3] was “inactive”.
Turning to `COC(=O)CC1(C(=O)OC)Nc2cc(Cl)c(Cl)cc2S(=O)(=O)N1` (stereo not given), the “inhibition (INH)” value against Histone deacetylase 1 is reported as “Not Active”. Moreover, the inhibition at 1 h, 30 µM in data set [1] was 6%; in data set [2] it was 3%; in data set [7] it was 17%. In data set [3], this compound returned an inhibition of 37%.
Regarding `O=C1CSC(=S)N1/N=C/c1c[nH]c2ccc(Br)cc12`, the “inhibition (INH)” value against Histone deacetylase 1 and against Histone deacetylase 8 was “Not Active” throughout. Moreover, the inhibition at 1 h, 30 µM is 10% in data set [1] and 18% in data set [2]. Moreover, the inhibition entry in data set [3] was “inactive”.
Take `CSc1nc(O)nnc1Sc1ccccc1`: the “inhibition (INH)” value against Histone deacetylase 1 and against Histone deacetylase 8 was “Not Active” throughout. The figures for the inhibition at 1 h, 30 µM in data set [1] and in data set [2] were 24% and 20%, respectively. Further, the inhibition entry in [3] was “inactive”.
For `O=[N+]([O-])c1c(N2CCN(CCO)CC2)nc2ccccn12`, the “inhibition (INH)” value (against Histone deacetylase 1; in [6]) was “Not Active” each time. The inhibition at 1 h, 30 µM in data set [2] is 1%; in [7], 31%. In addition, in data set [3], the inhibition worked out at 2%.
For the compound `CCOC(=O)C(Cc1ccc(O)cc1)Nc1nc2ccccc2o1` (stereo not given), the values for the inhibition at 1 h, 30 µM in data set [4] and in data set [1] were 1% and 7%, respectively. In addition, the “inhibition (INH)” value (in [5]; against Histone deacetylase 8) was “Not Active” in each case. The inhibition result in data set [3] was “inactive”.
On to `CCOC(=O)c1cc2c(OC)c(OC)ccc2c2ncc(C#N)c(O)c12`, for which the “inhibition (INH)” value (on Histone deacetylase 1; in data set [5]) was “Not Active” throughout. Besides, the inhibition at 1 h, 30 µM in [1] came out at 2%; in [7] it was 15%. In data set [3], the inhibition entry is “inactive”.
As to `O=C(Nc1cccc([N+](=O)[O-])c1)c1ccc2ccccc2c1O`, the inhibition at 1 h, 30 µM in data set [4] was determined as 3%; in data set [1], 10%. Besides, the “inhibition (INH)” value (in data set [5]; at Histone deacetylase 8) was “Not Active” throughout. Further, the inhibition entry in data set [3] was “inactive”.
